Experimental data published in patent US4889851A, “Benzothiadiazine compounds, and pharmaceutical composition comprising the same” (Fujisawa Pharmaceutical Co, Ltd., priority 1986, dated 1989).

Tested on: Neonatal calvaria (bone resorption)
Test: Inhibition of hPTH-induced bone resorption in cultured neonatal rat calvaria (calcium accumulation in medium)
Assay type: cell-based, rat (Wistar)
Details: Test Compound 1×10^-5 M with hPTH(1-34) 1×10^-8 M; calvaria halves cultured 6 days at 37° C.; total calcium in medium by OCPC method
Description: Neonatal calvaria were dissected aseptically from 1-2 day old rat (Wistar), washed in Dulbecco's modified eagle's medium and divided along the sagittal suture. The calvaria halves were pooled and randomized in the different groups. The calvaria halves were cultured separately as free-floating bones in multi-well dishes containing a 2 ml of Dubecco's modified eagle's medium, with 10% heat-inactivated (56° C. for 1 hr) fetal calf serum. Treatment of hPTH(1-34)(1×10 ^-8 M) and the Test Compound (1×10 ^-5 M) was begun at zero time. All incubations were performed at 37° C., under an atmosphere of 95% air and 5% CO2 for 6 days. Bone resorption was determined by measuring the accumulation of calcium in the medium at 6 days. The concentration of total calcium in culture medium was measured by OCPC method with a spectrophotometer (Hitachi model U-3200, Tokyo, Japan).
As comparative data, similar tests were conducted using culture medium with hPTH (1×10^-8 M)only, and culture medium without both hPTH and Test Compound.
Test results were represented in terms of percentage of inhibition calculated by the following formula: [formula] CD the concentration of total calcium in culture medium treated with both hPTH and Test Compound
CO the concentration of total calcium in control culture medium without both hPTH and Test Compound
CP the concentration of total calcium in culture medium treated with hPTH only

Compound | Inhibition (%)
CC(C)Oc1ccc2c(c1)N(C)C(=O)N(c1ccc(Cl)cc1)S2(=O)=O [(a), 2-(4-Chlorophenyl)-6-isopropoxy-4-methyl-2H-1,2,4-benzothiadiazine-3(4H)-one 1,1-dioxide] | 79.7%
CC(C)COc1ccc2c(c1)N(C)C(=O)N(c1ccc(Cl)cc1)S2(=O)=O [(b), 2-(4-Chlorophenyl)-4-methyl-6-(2-methylpropoxy)-2H-1,2,4-benzothiadiazine-3(4H)-one 1,1-dioxide] | 56.1%
CN1C(=O)N(c2ccc(Cl)cc2)S(=O)(=O)c2ccc(OCC3CCCCC3)cc21 [(c), 2-(4-Chlorophenyl)-4-methyl-6-cyclohexylmethoxy-2H -1,2,4-benzothiadiazine-3(4H)-one 1,1-dioxide] | 62.5%
CC(C)Oc1ccc2c(c1)N(C)C(=O)N(c1ccc(C(F)(F)F)cc1)S2(=O)=O [(d), 2-(4-Trifluoromethylphenyl)-4-methyl-6-isopropoxy-2H-1,2,4-benzothiadiazine-3(4H)-one 1,1-dioxide] | 52.9%
CC(Oc1ccc2c(c1)N(C)C(=O)N(c1ccc(Cl)cc1)S2(=O)=O)C(=O)O (stereo not drawn) [(e), 2-(4-Chlorophenyl)-6-(l-carboxyethoxy)-4-methyl-2H-1,2,4-benzothiadiazine-3(4H)-one 1,1-dioxide] | 67.9%
C[C@@H](Oc1ccc2c(c1)N(C)C(=O)N(c1ccc(Cl)cc1)S2(=O)=O)C(=O)O [(f), (1R)-(+)-2-(4-Chlorophenyl)-6-(l-carboxyethoxy)-4-methyl-2H-1,2,4-benzothiadiazine-3(4H)-one 1,1-dioxide] | 50.2%
